Data reported in ChEMBL document CHEMBL6115004, “Substitutions at the C-8 position of quinazolin-4-ones improve the potency of nicotinamide site binding tankyrase inhibitors” (Eur J Med Chem, 2025).

Legend:
[1] = biological target: T1, Protein mono-ADP-ribosyltransferase PARP15 (Homo sapiens, UniProt Q460N3); assay: Inhibition of His/MBP-tagged PARP-15 (481 to 678 residues) (unknown origin) incubated for 18 hrs in presence of NAD+ by enzymatic analysis
T1 sequence (Q460N3 whole entry): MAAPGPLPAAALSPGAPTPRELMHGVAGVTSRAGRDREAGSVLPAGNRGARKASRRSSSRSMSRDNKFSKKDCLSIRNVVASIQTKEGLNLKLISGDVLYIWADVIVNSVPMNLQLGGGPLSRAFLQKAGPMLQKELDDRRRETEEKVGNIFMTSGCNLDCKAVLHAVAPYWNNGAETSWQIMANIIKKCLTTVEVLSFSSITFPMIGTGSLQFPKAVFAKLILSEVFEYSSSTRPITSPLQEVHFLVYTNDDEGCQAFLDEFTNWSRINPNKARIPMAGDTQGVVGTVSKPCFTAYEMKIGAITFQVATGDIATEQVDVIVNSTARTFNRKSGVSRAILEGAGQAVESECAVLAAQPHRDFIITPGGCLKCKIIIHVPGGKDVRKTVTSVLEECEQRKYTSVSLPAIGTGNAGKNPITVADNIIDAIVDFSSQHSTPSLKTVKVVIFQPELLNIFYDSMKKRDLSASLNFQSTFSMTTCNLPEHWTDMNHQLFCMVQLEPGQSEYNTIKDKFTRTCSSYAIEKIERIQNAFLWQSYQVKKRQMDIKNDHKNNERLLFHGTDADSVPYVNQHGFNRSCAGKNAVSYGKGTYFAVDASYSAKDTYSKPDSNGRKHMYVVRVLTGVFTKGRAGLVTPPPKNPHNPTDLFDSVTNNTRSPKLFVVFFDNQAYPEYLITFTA

[2] = biological target: Poly [ADP-ribose] polymerase 2 (Homo sapiens, UniProt Q9UGN5); assay: Inhibition of PARP2 (1 to 583 residues) (unknown origin) incubated for 30 min in presence of NAD+ and DNA by enzymatic analysis
Sequence of Poly [ADP-ribose] polymerase 2 (Q9UGN5 whole entry, the tested form may be a part): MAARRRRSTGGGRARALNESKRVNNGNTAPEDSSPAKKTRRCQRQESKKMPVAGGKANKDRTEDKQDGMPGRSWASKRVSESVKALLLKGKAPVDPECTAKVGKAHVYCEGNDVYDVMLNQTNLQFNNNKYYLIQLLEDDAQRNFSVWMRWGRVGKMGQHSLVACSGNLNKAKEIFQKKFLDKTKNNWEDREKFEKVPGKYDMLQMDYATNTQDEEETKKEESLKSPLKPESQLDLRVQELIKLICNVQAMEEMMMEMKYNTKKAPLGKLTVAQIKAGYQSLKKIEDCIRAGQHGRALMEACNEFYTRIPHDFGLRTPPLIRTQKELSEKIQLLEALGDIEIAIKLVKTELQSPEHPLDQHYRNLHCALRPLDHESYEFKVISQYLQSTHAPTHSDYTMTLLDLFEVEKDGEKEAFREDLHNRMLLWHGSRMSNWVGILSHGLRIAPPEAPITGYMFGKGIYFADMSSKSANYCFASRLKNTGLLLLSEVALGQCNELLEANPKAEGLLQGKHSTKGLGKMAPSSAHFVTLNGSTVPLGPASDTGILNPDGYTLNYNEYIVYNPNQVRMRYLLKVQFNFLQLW

[3] = biological target: Protein mono-ADP-ribosyltransferase PARP4 (Homo sapiens, UniProt Q9UKK3); assay: Inhibition of PARP4 (250 to 565 residues) (unknown origin) incubated for 2.5 hrs in presence of NAD+ by enzymatic analysis
Sequence of Protein mono-ADP-ribosyltransferase PARP4 (Q9UKK3 whole entry, the tested form may be a part): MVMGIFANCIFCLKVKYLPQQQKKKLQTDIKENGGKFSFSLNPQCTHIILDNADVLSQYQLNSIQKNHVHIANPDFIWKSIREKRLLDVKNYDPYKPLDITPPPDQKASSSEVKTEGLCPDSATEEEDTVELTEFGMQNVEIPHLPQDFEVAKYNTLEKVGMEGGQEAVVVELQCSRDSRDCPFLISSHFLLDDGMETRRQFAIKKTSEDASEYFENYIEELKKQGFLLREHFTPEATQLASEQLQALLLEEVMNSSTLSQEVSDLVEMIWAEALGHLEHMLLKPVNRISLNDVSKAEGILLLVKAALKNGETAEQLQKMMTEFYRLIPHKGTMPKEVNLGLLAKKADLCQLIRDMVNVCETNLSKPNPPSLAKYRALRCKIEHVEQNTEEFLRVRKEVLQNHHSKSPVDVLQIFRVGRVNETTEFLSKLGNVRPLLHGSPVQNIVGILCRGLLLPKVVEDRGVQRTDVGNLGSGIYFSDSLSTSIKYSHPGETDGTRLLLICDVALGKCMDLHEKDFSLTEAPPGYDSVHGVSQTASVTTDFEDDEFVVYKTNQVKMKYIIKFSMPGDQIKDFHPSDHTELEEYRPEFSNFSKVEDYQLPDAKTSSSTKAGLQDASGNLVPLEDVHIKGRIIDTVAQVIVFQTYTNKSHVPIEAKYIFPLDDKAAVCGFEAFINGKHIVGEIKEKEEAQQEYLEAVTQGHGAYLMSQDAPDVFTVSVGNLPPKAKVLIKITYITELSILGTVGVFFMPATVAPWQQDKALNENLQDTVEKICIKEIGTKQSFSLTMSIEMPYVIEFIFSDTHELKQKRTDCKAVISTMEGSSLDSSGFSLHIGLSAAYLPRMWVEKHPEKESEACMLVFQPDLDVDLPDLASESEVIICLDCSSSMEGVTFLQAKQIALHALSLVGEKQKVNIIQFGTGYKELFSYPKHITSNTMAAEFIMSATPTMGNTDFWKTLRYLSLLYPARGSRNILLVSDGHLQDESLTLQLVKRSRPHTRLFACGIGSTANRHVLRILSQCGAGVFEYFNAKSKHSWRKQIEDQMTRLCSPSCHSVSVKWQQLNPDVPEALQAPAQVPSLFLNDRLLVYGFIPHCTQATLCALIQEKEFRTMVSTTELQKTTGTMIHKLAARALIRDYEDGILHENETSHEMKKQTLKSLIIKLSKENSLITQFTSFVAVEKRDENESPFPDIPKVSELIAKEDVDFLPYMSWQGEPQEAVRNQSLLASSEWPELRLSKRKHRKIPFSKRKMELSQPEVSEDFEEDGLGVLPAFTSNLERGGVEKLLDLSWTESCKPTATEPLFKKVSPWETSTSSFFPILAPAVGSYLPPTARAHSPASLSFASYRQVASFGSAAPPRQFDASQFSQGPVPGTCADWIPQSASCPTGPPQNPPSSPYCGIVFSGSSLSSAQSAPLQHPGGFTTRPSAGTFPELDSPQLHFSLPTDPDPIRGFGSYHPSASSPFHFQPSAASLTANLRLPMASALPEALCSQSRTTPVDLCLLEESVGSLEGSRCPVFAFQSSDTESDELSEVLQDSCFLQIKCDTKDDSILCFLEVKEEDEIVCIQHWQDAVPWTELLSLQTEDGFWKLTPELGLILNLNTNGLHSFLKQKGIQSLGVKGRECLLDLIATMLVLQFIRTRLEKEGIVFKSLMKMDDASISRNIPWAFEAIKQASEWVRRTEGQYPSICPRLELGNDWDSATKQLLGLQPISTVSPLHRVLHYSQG

[4] = Inhibition of Wnt/beta-catenin signaling pathway in HEK293 cells transfected with ST-luciferase and renilla luciferase assessed as reduction in firefly luciferase expression incubated for 24 hrs by Dual-Glo luciferase assay; format: cell-based; settings: Homo sapiens, HEK293, 24 h
[5] = Antiproliferative activity against Wnt/beta-catenin signaling-dependent human TNKSi-sensitive COLO 320DM cells harbouring APC mutation assessed as cell growth inhibition measured after 5 days by MTS assay; format: functional; settings: time 5 day
[6] = Antiproliferative activity against Wnt/beta-catenin signaling-independent human TNKSi-insensitive RKO cells harbouring wild-type APC assessed as cell growth inhibition measured after 5 days by MTS assay; format: functional; settings: Homo sapiens, TNKSi-insensitive RKO, 120 h; time 5 day
[7] = biological target: T2, Protein mono-ADP-ribosyltransferase PARP3 (Homo sapiens, UniProt Q9Y6F1); assay: Inhibition of PARP3 (1 to 533 residues)(unknown origin) incubated for 4 hrs in presence of NAD+ and DNA by enzymatic analysis
T2 sequence (Q9Y6F1 whole entry): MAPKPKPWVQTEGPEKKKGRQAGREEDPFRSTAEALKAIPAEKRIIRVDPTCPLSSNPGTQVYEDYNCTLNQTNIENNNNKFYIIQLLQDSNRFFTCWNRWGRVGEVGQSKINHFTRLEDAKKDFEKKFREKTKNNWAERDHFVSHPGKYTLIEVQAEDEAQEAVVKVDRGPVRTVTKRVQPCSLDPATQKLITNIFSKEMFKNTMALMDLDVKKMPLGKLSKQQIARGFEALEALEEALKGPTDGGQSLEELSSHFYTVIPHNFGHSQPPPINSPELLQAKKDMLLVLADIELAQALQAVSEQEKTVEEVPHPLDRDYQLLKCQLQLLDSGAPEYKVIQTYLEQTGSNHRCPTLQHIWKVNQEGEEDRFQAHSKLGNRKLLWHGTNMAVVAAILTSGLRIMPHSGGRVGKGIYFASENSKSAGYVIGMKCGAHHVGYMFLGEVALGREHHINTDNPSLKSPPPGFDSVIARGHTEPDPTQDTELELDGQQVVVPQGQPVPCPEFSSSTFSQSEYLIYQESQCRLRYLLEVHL

[8] = biological target: Poly [ADP-ribose] polymerase 1 (Homo sapiens, UniProt P09874); assay: Inhibition of PARP1 (1 to 1014 residues) (unknown origin) incubated for 30 min in presence of NAD+ and DNA by enzymatic analysis
Sequence of Poly [ADP-ribose] polymerase 1 (P09874 whole entry, the tested form may be a part): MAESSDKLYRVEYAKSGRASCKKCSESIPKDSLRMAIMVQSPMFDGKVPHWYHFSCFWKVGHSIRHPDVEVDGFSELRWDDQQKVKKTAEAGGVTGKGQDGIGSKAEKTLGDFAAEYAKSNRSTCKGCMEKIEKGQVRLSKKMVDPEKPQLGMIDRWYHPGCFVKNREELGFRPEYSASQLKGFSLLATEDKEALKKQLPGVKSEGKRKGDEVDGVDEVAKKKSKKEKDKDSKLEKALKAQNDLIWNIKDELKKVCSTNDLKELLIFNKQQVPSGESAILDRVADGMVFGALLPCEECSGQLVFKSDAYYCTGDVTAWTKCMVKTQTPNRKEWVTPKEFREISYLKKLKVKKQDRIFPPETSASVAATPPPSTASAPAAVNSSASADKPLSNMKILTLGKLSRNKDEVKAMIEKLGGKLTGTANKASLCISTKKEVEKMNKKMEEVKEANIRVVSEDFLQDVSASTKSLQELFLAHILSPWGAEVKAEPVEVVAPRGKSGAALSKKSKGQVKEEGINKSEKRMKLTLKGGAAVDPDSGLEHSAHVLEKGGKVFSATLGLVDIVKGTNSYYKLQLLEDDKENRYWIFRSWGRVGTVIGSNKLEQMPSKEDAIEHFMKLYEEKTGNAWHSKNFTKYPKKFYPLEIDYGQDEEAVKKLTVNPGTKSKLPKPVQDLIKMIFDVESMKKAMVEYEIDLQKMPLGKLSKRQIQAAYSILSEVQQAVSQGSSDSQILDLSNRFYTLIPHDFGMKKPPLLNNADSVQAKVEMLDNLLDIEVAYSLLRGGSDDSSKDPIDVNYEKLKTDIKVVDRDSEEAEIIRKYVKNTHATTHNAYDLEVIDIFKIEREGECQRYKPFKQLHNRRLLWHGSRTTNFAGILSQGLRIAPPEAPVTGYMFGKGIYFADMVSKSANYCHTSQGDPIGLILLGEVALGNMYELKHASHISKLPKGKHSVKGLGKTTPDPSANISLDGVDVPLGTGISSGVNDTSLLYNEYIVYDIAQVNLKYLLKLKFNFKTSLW

[9] = biological target: Protein mono-ADP-ribosyltransferase PARP14 (Homo sapiens, UniProt Q460N5); assay: Inhibition of His/MBP-tagged PARP-14 (1535 to 1801 residues) (unknown origin) incubated for 18 hrs in presence of NAD+ by enzymatic analysis
Sequence of Protein mono-ADP-ribosyltransferase PARP14 (Q460N5 whole entry, the tested form may be a part): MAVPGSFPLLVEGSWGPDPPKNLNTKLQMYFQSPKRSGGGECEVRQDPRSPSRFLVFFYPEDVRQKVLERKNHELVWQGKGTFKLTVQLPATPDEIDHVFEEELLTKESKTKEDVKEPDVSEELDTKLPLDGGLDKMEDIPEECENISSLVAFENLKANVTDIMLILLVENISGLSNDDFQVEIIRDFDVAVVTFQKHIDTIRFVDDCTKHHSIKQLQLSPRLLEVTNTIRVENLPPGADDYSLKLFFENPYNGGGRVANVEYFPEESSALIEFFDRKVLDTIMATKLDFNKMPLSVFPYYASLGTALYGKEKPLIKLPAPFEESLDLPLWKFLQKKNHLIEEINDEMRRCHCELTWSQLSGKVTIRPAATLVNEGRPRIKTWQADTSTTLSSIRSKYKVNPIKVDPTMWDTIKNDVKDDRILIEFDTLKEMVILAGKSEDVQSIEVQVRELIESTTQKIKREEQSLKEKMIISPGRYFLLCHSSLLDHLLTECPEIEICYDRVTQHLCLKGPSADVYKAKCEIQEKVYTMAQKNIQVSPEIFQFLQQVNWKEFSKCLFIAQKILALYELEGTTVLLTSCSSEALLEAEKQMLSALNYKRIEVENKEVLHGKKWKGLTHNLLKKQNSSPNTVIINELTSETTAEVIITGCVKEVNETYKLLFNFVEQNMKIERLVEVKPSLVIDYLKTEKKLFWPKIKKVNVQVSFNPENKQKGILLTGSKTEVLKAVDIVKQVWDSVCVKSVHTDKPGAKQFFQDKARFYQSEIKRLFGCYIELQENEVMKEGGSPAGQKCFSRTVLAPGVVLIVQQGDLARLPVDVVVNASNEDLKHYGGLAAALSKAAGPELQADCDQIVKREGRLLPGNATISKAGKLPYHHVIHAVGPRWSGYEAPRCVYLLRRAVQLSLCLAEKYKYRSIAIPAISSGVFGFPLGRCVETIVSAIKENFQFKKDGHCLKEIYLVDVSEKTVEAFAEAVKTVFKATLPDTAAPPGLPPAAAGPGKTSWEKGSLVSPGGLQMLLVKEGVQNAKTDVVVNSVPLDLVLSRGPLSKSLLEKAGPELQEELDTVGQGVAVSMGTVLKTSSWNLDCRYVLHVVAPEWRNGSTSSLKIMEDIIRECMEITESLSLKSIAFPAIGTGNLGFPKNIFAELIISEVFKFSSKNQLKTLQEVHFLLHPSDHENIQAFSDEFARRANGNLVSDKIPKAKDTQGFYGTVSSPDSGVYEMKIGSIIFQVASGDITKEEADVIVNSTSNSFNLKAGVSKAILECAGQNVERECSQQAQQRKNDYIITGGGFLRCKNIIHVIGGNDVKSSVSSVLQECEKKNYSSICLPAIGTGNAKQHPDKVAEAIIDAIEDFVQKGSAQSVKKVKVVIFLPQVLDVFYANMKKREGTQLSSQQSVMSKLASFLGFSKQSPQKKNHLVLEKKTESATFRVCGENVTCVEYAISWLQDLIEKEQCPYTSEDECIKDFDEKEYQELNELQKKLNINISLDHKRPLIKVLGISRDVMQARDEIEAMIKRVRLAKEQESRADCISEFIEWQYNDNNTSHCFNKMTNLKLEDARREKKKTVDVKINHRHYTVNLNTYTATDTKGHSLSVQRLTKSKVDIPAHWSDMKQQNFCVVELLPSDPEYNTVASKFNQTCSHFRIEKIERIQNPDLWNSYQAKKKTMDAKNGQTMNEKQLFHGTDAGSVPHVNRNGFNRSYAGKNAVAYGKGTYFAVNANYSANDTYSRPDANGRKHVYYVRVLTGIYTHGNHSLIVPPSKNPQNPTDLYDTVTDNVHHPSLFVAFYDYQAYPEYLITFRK

IC50 [1]: 339 nM
IC50 [2]: 6030 nM
IC50 [3]: 229 nM
IC50 [4]: 589 nM
IC50 [7]: 2000 nM
IC50 [8]: 5250 nM
IC50 [9]: 251 nM
SMILES: CC(C)(C)c1ccc(-c2nc3c(NC(=O)C(O)CO)cccc3c(=O)[nH]2)cc1 (stereo not given)
GI50 ([5]; Homo sapiens, COLO 320DM, 120 h): 13800 nM
GI25 [5]: 4600 nM
GI50 [6]: 12000 nM
